System: distal colon longitudinal muscle (colon specimen)
Assay: Magnus method, effects of sodium propionate and sodium acetate (Example 5)
Set-up: species or system rat
Details: for effect on contractile force (in words) / effect on contraction frequency (in words): Example 5, 10, 30, 100 μL of 0.1 M solution
From the text: Seven-week-old SD type male rats were reared and habituated for one week, then sacrificed to excise the colon. Then, about 1 cm of the longitudinal muscle of the colon was isolated from the distal colon (a portion at about 2 to 3 cm to the appendix side from the anus), and cut into two pieces in the longitudinal layer direction (hereinafter, this is also referred to as colon specimen). Each colon specimen was hung with resting tension of 1 g in a Magnus tube filled with Krebs buffer under the condition described below, and a mixed gas of 95% oxygen and 5% carbon dioxide was passed thereto. Then, the colon specimens were equilibrated for about one hour while changing the Krebs buffer every 15 minutes.
Distilled water was added to 6.92 g of NaCl, 0.35 g of KCl, 0.29 g of MgSO4.7H2O, 0.16 g of KH2PO4, 2.1 g of glucose, 0.28 g of CaCl2, and 2.1 g of NaHCO3 to obtain 1 L. • Temperature of Krebs buffer in the Magnus tube: 32° C. • Volume of Krebs buffer introduced into the Magnus tube: 10 mL. Preparation of Test Substances
These were used as test substance aqueous solutions in the assessment test described below. Meanwhile, distilled water was used as control.
The measurement of tension and observation of muscle conditions were carried out for 15 minutes. Tension measurement charts were recorded using a recorder adjusted such that a 5 cm displacement occurs per tension of 1 g on the measurement charts. The resulting measurement charts were used to observe peaks of tension associated with muscle contraction. The contraction frequency (times/minute) was calculated from the number of peaks (times) that appeared per unit time (minute), the contractile force (g) was calculated from the peak height (cm), and numerical values were used for evaluation. With the obtained results, comparisons between the groups were further assessed for significant differences by the Student's t-test.

[1] = 10 μL of 0.1 mol/L aqueous solution added to 10 mL Krebs buffer
[2] = 30 μL of 0.1 mol/L aqueous solution added to 10 mL Krebs buffer
[3] = 100 μL of 0.1 mol/L aqueous solution added to 10 mL Krebs buffer

| Structure (SMILES) | effect on contractile force (in words) | effect on contraction frequency (in words) | CONTRACTILE FORCE [1] | CONTRACTION FREQUENCY [1] | CONTRACTILE FORCE [2] | CONTRACTION FREQUENCY [2] | CONTRACTILE FORCE [3] | CONTRACTION FREQUENCY [3] |
| --- | --- | --- | --- | --- | --- | --- | --- | --- |
| CC(=O)[O-].[Na+] [SODIUM ACETATE, sodium acetate] | neither a contractile force-increasing effect nor a contractile force-suppressing effect | neither a contraction frequency-enhancing effect nor a contraction frequency-suppressing effect |  |  |  |  |  |  |
| CCC(=O)[O-].[Na+] [SODIUM PROPIONATE, sodium propionate] | neither a contractile force-increasing effect nor a contractile force-suppressing effect | neither a contraction frequency-enhancing effect nor a contraction frequency-suppressing effect | 1.15 ± 0.72 g | 0.47 ± 0.14 TIMES/MINUTE | 1.24 ± 0.77 g | 0.73 ± 0.19 TIMES/MINUTE | 1.20 ± 0.68 g | 0.73 ± 0.38 TIMES/MINUTE |
